{
  "source": "patent US6642178B2",
  "about": "“Adjuvant blend for enhancing efficacy of pesticides” (priority 2001, dated 2003)",
  "key": {"green foxtail": {"system": "green foxtail", "assay": "Green foxtail control with nicosulfuron as influenced by adjuvants (greenhouse)", "assay_type": "in vivo", "conditions": "nicosulfuron 0.04 oz/A, no adjuvant; 2 WAT", "text": "TABLE 3 includes the results of assessment made 2 WAT (weeks after treatment)."}, "large crabgrass": {"system": "large crabgrass", "assay": "Large crabgrass control with nicosulfuron as influenced by adjuvants (greenhouse)", "assay_type": "in vivo", "conditions": "nicosulfuron 0.2 oz/A, no adjuvant, 3 WAT", "text": "TABLE 2 includes the results of assessment made 3 WAT (weeks after treatment). Visible injury rating is on a scale 0 to 100% with 0% representing no visible injury and 100% complete kill."}},
  "data": [
    {"smiles": "COc1cc(OC)nc(NC(=O)NS(=O)(=O)c2ncccc2C(=O)N(C)C)n1", "note": "[nicosulfuron]", "values": [
      {"measurement": "% fresh weight reduction", "setting": "green foxtail", "value": 0, "unit": "%"},
      {"measurement": "% fresh weight reduction", "setting": "large crabgrass", "value": 57, "unit": "%"},
      {"measurement": "% visible injury", "setting": "large crabgrass; scale 0-100%", "value": 31, "unit": "%"}
    ]}
  ]
}
